{"source": "BindingDB's records for patent US20250034168", "about": "(Xizang Haisco Pharmaceutical, 2025)", "target": "Poly [ADP-ribose] polymerase 1 (Homo sapiens, UniProt P09874)", "sequence (P09874 whole entry)": "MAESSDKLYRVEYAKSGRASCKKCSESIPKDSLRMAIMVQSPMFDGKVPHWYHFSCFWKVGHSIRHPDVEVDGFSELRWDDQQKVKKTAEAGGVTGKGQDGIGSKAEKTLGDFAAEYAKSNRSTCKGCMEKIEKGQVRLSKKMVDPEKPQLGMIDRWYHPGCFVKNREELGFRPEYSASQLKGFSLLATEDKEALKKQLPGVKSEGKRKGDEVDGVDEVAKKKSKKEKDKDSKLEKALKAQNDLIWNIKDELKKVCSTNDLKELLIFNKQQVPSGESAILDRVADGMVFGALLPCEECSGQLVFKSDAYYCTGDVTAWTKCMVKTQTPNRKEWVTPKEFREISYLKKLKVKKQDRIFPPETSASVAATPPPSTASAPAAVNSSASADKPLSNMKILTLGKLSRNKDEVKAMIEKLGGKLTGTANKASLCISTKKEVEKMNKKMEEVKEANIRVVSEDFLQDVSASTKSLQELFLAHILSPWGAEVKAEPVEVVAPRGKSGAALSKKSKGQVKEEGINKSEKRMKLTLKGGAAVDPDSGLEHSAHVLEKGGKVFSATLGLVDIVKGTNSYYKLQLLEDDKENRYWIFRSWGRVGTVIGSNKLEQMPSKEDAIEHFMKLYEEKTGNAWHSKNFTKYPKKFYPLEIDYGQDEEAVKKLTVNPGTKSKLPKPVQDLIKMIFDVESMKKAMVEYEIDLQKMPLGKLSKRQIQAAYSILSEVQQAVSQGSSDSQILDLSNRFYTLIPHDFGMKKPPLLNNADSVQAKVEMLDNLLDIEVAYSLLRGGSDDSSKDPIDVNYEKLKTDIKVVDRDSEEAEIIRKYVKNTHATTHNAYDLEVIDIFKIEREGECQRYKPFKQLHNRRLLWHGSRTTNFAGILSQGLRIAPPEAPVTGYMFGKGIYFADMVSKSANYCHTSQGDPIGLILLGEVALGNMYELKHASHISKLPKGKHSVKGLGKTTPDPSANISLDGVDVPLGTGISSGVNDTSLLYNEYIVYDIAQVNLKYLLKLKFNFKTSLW", "assay": "PARP-1 Enzyme Activity Assay", "protocol": "PARP-1 chemical […] detection kit was purchased from BPS Bioscience. The histone solution in the kit was diluted 5× with 1×PBS, and 25 μL of the diluted histone solution was added to a microwell plate and incubated overnight at 4° C. After the incubation, the plate was washed three times with PBST (0.05% Tween-20). 100 μL of the blocking solution was added to the microwell plate and incubated at 25° C. for 90 minutes. After the incubation, the plate was washed three times with PBST. 2.5 μL of compounds at different concentrations diluted in test buffer and 12.5 μL of substrate mixed solution (1.25 μL 10×PARP test buffer; 1.25 μL 10×PARP test mixed solution; 2.5 μL Activated DNA, 7.5 μL double-distilled water) were added to the microwell plate. […] Streptavidin-HRP was diluted 50× with a blocking solution, and 25 μL of the diluent was added to the microwell plate and incubated at 25° C. for 30 minutes. After the incubation, the plate was washed three times with PBST. ELISA ECL substrate A and substrate B were mixed at a ratio of 1:1 (v/v), 50 μL of the mixture was added to the microwell plate, and the chemiluminescence value was read."}
{"smiles": "CCc1cc2ncc(CN3CCC(Nc4ccc(C(=O)NC)nc4)C3)cc2[nH]c1=O", "note": "(stereo unspecified) [US20250034168, Compound 7]", "values": [{"measurement": "IC50", "value": 2.8, "unit": "nM"}]}
